Measurements from US7825245B2, “Substituted 4-anilinoquinazolines and their use in tumor treatment” (priority 2005, dated 2010).

Assays:
[1] = water solubility of the isolated product; format: physicochemical; settings: isolated white powder
[2] = pH of the isolated product; format: physicochemical; settings: isolated white powder

| Compound | water solubility [1] | pH [2] |
| --- | --- | --- |
| C#CC1CCN(Nc2c(OC)cc3ncnc(N(C)c4ccc(C)cc4)c3c2CC)CC1 [III-1] | water-soluble | 6.4 |
| C=CC1CCN(Sc2cc3c(N(C)c4ccc(CC)cc4)ncnc3c(C)c2OCCC)CC1 [Compound V-1] | water-soluble | 6.4 |
| C=CC1CCN(C(=O)Oc2cc3c(N(C)c4ccc(CC)cc4)ncnc3c(C)c2OCC)CC1 [II-1] | water-soluble | 6.4 |
